# From US20260248157A1, “COMPOSITIONS FOR REDUCING METHANE EMISSION” (MOOTRAL INNOVATIONS LIMITED, priority 2022, published 2026)
# Read-outs that look alike come from different tables or passages of the source.
# System: Methanococcus maripaludis
# Assay: Inhibition of methane production by Methanococcus maripaludis culture (pressure drop after 24 h)
# Format: cell-based
# Details: for Fold increase of Compound X combined with bromoform as compared to Compound X alone: bromoform 0.12 μM; for inhibition at 25 µM: Compound X 25 μM alone; for inhibition at 100 µM: Compound X 100 μM alone
# Description: For this experiment, bromoform was prepped at 100 mM by adding 8.75 μl bromoform to 991 μl DMSO. This was diluted 10× to generate a 10 mM solution and further diluted to generate 0.12 mM stock solutions. Compound X stock solutions were prepared in DMSO (except for tannic acid, which was diluted in deionized water), to achieve the desired stock solutions required for testing. The experiment was set up by adding 5 ml of M141 medium (https://www.dsmz.de/microorganisms/medium/pdf/DSMZ_Medium141.pdf) to a screw cap Hungate tube followed by the addition of 5 μl Compound X and/or 5 μl bromoform or 5/10 μl DMSO as follows: • Tube 1: DMSO (10 μl) • Tube 2: Bromoform (5 μl, 0.120 mM) (120 nM final)+5 μl DMSO • Tube 3: Compound X (5 μl stock solution)+5 μl DMSO • Tube 4: Bromoform (5 μl 0.120 mM) (120 nM final)+Compound X (5 μl stock solution)
# The concentration of Bromoform was fixed at 0.12 μM.
# After the addition of the test substances, 500 μl of an overnight M. maripaludis culture was added to each reaction tube. Each tube was gassed with 80% H2/20% CO2 to 240 kPa and incubated at 37° C. for 24 h.
# After the 24 h incubation the pressure inside the tube was measured using a manometer. Given that 5 moles of H2/CO2 are consumed to generate 1 mole of CH4 the drop in pressure observed was used to calculate the amount of methane by the control and test reactions from which a percent inhibition was calculated.
# Table 1 below summarises the range of concentrations and the fold increase in inhibition of Compound X when tested with bromoform relative to the level of inhibition for Compound X when tested alone.
# [1] = Compound X 500 μM + bromoform 0.12 μM, 24 h
# [2] = Methanococcus maripaludis, 24 h, read-out: Methane inhibition of Compound X as a sole compound (%)
# [3] = Compound X 1 mM + bromoform 0.12 μM, 24 h
# [4] = Compound X 25 μM + bromoform 0.12 μM, 24 h
# [5] = Compound X 100 μM + bromoform 0.12 μM, 24 h
compound,measurement,setting,value
CC(C)=CCCC(C)=CC=O [Citral],Methane inhibition in combination with Bromoform (%),[1],96.7%
same,Fold increase of Compound X combined with bromoform as compared to Compound X alone,Compound X 500 μM,7.29 fold
same,inhibition at 500 µM,"Methanococcus maripaludis, Compound X 500 μM alone, 24 h, read-out: Methane inhibition of Compound X as a sole compound (%)",13.3%
Cc1ccc(C(C)C)cc1O [Carvacrol],Methane inhibition in combination with Bromoform (%),[1],79.6%
same,Fold increase of Compound X combined with bromoform as compared to Compound X alone,Compound X 500 μM,1.14 fold
same,inhibition at 500 µM,[2],69.6%
COc1cc(O)c(CC=C(C)C)c(O)c1C(=O)/C=C/c1ccc(O)cc1 [Xanthohumol],Methane inhibition in combination with Bromoform (%),"Compound X 6.25 μM-12.5 μM (range tested) + bromoform 0.12 μM, 24 h",95.1%
same,Fold increase of Compound X combined with bromoform as compared to Compound X alone,Compound X 6.25 μM-12.5 μM (range tested),1.5 fold
same,inhibition,"Methanococcus maripaludis, Compound X 6.25 μM-12.5 μM (range tested) alone, 24 h, read-out: Methane inhibition of Compound X as a sole compound (%)",63.6%
ClC(Br)Br [Dibromochloromethane],Methane inhibition in combination with Bromoform (%),"Compound X 0.195 μM + bromoform 0.12 μM, 24 h",92.2%
same,Fold increase of Compound X combined with bromoform as compared to Compound X alone,Compound X 0.195 μM,92.2 fold
same,inhibition at 0.195 µM,[2],1%
CC(C)=CCc1c(O)ccc(C(=O)/C=C/c2ccc(O)cc2)c1O [Isobavachalcone],Methane inhibition in combination with Bromoform (%),"Compound X 3.125 μM-6.25 μM (range tested) + bromoform 0.12 μM, 24 h",93.4%
same,Fold increase of Compound X combined with bromoform as compared to Compound X alone,Compound X 3.125 μM-6.25 μM (range tested),1.12 fold
same,inhibition,"Methanococcus maripaludis, Compound X 3.125 μM-6.25 μM (range tested) alone, 24 h, read-out: Methane inhibition of Compound X as a sole compound (%)",83.4%
CSSC [Dimethyl disulfide],Methane inhibition in combination with Bromoform (%),[3],43.5%
same,Fold increase of Compound X combined with bromoform as compared to Compound X alone,Compound X 1 mM,43.5 fold
same,inhibition at 1000 µM,[2],1%
CC(C)=CCc1c(O)cc(O)c2c1O[C@H](c1ccc(O)cc1)CC2=O [8-prenylnaringenin],Methane inhibition in combination with Bromoform (%),"Compound X 12.5 μM + bromoform 0.12 μM, 24 h",97.2%
same,Fold increase of Compound X combined with bromoform as compared to Compound X alone,Compound X 12.5 μM,1.27 fold
same,inhibition at 12.5 µM,"Methanococcus maripaludis, Compound X 12.5 μM alone, 24 h, read-out: Methane inhibition of Compound X as a sole compound (%)",76.4%
C[C@H]1O[C@@H](O[C@H]2CC[C@@]3(C)[C@@H](CC[C@]4(C)[C@@H]3C=CC3=C5CC(C)(C)CC[C@]5(CO)[C@H](O)C[C@]34C)[C@]2(C)CO)[C@H](O)[C@@H](O[C@@H]2O[C@H](CO)[C@@H](O)[C@H](O)[C@H]2O)[C@H]1O [Saikosaponin b2],Methane inhibition in combination with Bromoform (%),"Compound X 10 μM + bromoform 0.12 μM, 24 h",55.6%
same,Methane inhibition of Compound X as a sole compound (%),"Compound X 10 μM alone, 24 h",1%
same,Fold increase of Compound X combined with bromoform as compared to Compound X alone,Compound X 10 μM,55.6 fold
CC(C)=CCc1cc2c(cc1O)O[C@H](c1ccc(O)cc1)CC2=O [Bavachin],Methane inhibition in combination with Bromoform (%),[4],57.4%
same,Fold increase of Compound X combined with bromoform as compared to Compound X alone,Compound X 25 μM,57.4 fold
same,inhibition at 25 µM,[2],1%
O=[N+]([O-])OCCCO [3-Nitrooxypropanol],Methane inhibition in combination with Bromoform (%),"Compound X 0.78 μM-1.56 μM (range tested) + bromoform 0.12 μM, 24 h",91.3%
same,Fold increase of Compound X combined with bromoform as compared to Compound X alone,Compound X 0.78 μM-1.56 μM (range tested),91.3 fold
same,inhibition,"Methanococcus maripaludis, Compound X 0.78 μM-1.56 μM (range tested) alone, 24 h, read-out: Methane inhibition of Compound X as a sole compound (%)",1%
O=C(OC[C@H]1O[C@@H](OC(=O)c2cc(O)c(O)c(OC(=O)c3cc(O)c(O)c(O)c3)c2)[C@H](OC(=O)c2cc(O)c(O)c(OC(=O)c3cc(O)c(O)c(O)c3)c2)[C@@H](OC(=O)c2cc(O)c(O)c(OC(=O)c3cc(O)c(O)c(O)c3)c2)[C@@H]1OC(=O)c1cc(O)c(O)c(OC(=O)c2cc(O)c(O)c(O)c2)c1)c1cc(O)c(O)c(OC(=O)c2cc(O)c(O)c(O)c2)c1 [Tannic acid],Methane inhibition in combination with Bromoform (%),[5],56.1%
same,Fold increase of Compound X combined with bromoform as compared to Compound X alone,Compound X 100 μM,1.16 fold
same,inhibition at 100 µM,[2],48.3%
O=c1c(O)c(-c2ccc(O)c(O)c2)oc2cc(O)cc(O)c12 [Quercetin],Methane inhibition in combination with Bromoform (%),"Compound X 50 μM-100 μM (range tested) + bromoform 0.12 μM, 24 h",91.2%
same,Fold increase of Compound X combined with bromoform as compared to Compound X alone,Compound X 50 μM-100 μM (range tested),1.21 fold
C=C[C@](C)(O)CC[C@@H]1[C@@]2(C)CCCC(C)(C)[C@@H]2CC[C@@]1(C)O [Sclareol],Methane inhibition in combination with Bromoform (%),[4],61.2%
same,Fold increase of Compound X combined with bromoform as compared to Compound X alone,Compound X 25 μM,56 fold
same,inhibition at 25 µM,[2],1.1%
CC(C)=CCc1c(-c2ccc(O)cc2O)oc2c3c(cc(O)c2c1=O)OC(C)(C)C=C3 [Morusin],Methane inhibition in combination with Bromoform (%),"Compound X 1.25 μM-10 μM (range tested) + bromoform 0.12 μM, 24 h",96.7%
same,Fold increase of Compound X combined with bromoform as compared to Compound X alone,Compound X 1.25 μM-10 μM (range tested),2.16 fold
C[C@H]1[C@H](C)CC[C@]2(C(=O)O)CC[C@]3(C)C(=CC[C@@H]4[C@@]5(C)CC[C@H](O)C(C)(C)[C@@H]5CC[C@]43C)[C@H]12 [Ursolic Acid],Methane inhibition in combination with Bromoform (%),[5],85.2%
same,Fold increase of Compound X combined with bromoform as compared to Compound X alone,Compound X 100 μM,85.2 fold
same,inhibition at 100 µM,[2],1%
O=CC=Cc1ccccc1 [Cinnamaldehyde],Methane inhibition in combination with Bromoform (%),[3],91.7%
same,Fold increase of Compound X combined with bromoform as compared to Compound X alone,Compound X 1 mM,91.7 fold
same,inhibition at 1000 µM,"Methanococcus maripaludis, Compound X 1 mM alone, 24 h, read-out: Methane inhibition of Compound X as a sole compound (%)",1%
CC(C)=CCC/C(C)=C/Cc1cc(-c2coc3cc(O)ccc3c2=O)ccc1O [Corylifol A],Methane inhibition in combination with Bromoform (%),"Compound X 3.125 μM + bromoform 0.12 μM, 24 h",96.1%
same,Methane inhibition of Compound X as a sole compound (%),"Compound X 3.125 μM alone, 24 h",1%
same,Fold increase of Compound X combined with bromoform as compared to Compound X alone,Compound X 3.125 μM,96.1 fold
Bavachinin,Methane inhibition in combination with Bromoform (%),"Compound X 12.5 μM-100 μM (range tested) + bromoform 0.12 μM, 24 h",97.2%
same,Methane inhibition of Compound X as a sole compound (%),"Compound X 12.5 μM-100 μM (range tested) alone, 24 h",43%
same,Fold increase of Compound X combined with bromoform as compared to Compound X alone,Compound X 12.5 μM-100 μM (range tested),2.26 fold
CC(C)=CCC[C@](C)(O[C@@H]1O[C@H](CO[C@@H]2OC[C@H](O)[C@H](O)[C@H]2O)[C@@H](O)[C@H](O)[C@H]1O)[C@H]1CC[C@]2(C)[C@@H]1[C@H](O)C[C@@H]1[C@@]3(C)CC[C@H](O[C@@H]4O[C@H](CO)[C@@H](O)[C@H](O)[C@H]4O[C@@H]4O[C@H](CO)[C@@H](O)[C@H](O)[C@H]4O)C(C)(C)[C@@H]3CC[C@]12C [Ginsenoside Rb2],Methane inhibition in combination with Bromoform (%),"Compound X 20 μM + bromoform 0.12 μM, 24 h",66.9%
same,Methane inhibition of Compound X as a sole compound (%),"Compound X 20 μM alone, 24 h",44.7%
same,Fold increase of Compound X combined with bromoform as compared to Compound X alone,Compound X 20 μM,1.42 fold
O=C(O)C(Br)Br [Dibromoacetic acid],Methane inhibition in combination with Bromoform (%),"Compound X 200 μM + bromoform 0.12 μM, 24 h",88.1%
same,Fold increase of Compound X combined with bromoform as compared to Compound X alone,Compound X 200 μM,88.1 fold
same,inhibition at 200 µM,[2],1%
